This note sets out measurements from paper PMC10305617, “Sesquiterpene Coumarin Ethers with Selective Cytotoxic Activities from the Roots of Ferula huber-morathii Peşmen (Apiaceae) and Unequivocal Determination of the Absolute Stereochemistry of Samarcandin” (Pharmaceuticals, 2023).

Holding throughout (assay type): cell-based, Human
The test system of one series is COLO 205. The series is described as follows: MTS cell viability (cytotoxic activity) assay, COLO 205. The note with it: for IC50: Homo sapiens, COLO 205, MTS, 72 h, mean ± SD, at least three experiments. An excerpt: (§1) Human colorectal cancer (COLO 205, CCL-222), breast cancer (MCF-7, HTB-22), chronic myelogenous leukemia (K-562, CCL-243), and umbilical vein/vascular endothelium (HUVEC, CRL-1730) cell lines were obtained from the American Type Culture Collection. The COLO 205, MCF-7, K-562, and HUVEC cell lines were maintained in Roswell Park Memorial Institute ([…], Wisent, Montreal, QC, CANADA), Eagle′s Minimum Essential Medium (EMEM, Wisent, Montreal, QC, CANADA), Iscove’s Modified Dulbecco’s Medium (IMDM, Wisent, Montreal, QC, CANADA), and Dulbecco′s Modified Eagle Medium (DMEM, Wisent, Montreal, QC, CANADA) supplemented with 10% fetal bovine serum (Capricorn, Ebsdorfergrund, Germany), 100 U/mL penicillin, and 100 µg/mL streptomycin (Wisent, Montreal, QC, CANADA), respectively. All of the cell lines were cultured at 37 °C in a humidified atmosphere containing 5% CO2.
(§2) A 3-[4,5-dimethylthiazol-2-yl]-5-[3-carboxymethoxyphenyl]-2-[4-sulfophenyl]-2H-tetrazolium, inner salt (MTS) cell viability assay was performed to evaluate the cytotoxic activities of the sesquiterpene coumarin ethers isolated from Ferula huber-morathii. HUVEC (1 × 10^4), COLO 205 (3 × 10^4), K-562 (3 × 10^4), and MCF7 (5 × 10^4) were plated in 96-well plates. Then, 24 h later, the tested compounds were dissolved in DMSO, and the cells were exposed to the different concentrations (131.58–1.028 µM) of the compounds for 72 h. Cisplatin and doxorubicin were used as a positive control. Next, an MTS/phenazine methosulfate (PMS) (Promega, Madison, WI, USA and Sigma, St. Louis, MO, USA respectively) mixture was added to each well and incubated for 1–4 h at 37 °C. The absorbance was read on a microplate reader (Biotek, Winooski, VT, USA) at 490 nm. The cytotoxic activities of the compounds were expressed as an IC50 value. The % inhibition of cell proliferation was calculated using the formula: % Inhibition = [1-(A490test/A490cont)] × 100, where A490test = absorbance of the test sample and A490cont = absorbance of the control sample [88]. The values of the 50% inhibition of the cell proliferation (IC50) were calculated by locating the x-axis values corresponding to one-half of the absorbance values of the sample.

Another series deals with K-562. The series is described as follows: MTS cell viability (cytotoxic activity) assay, K-562. The settings on record: for IC50: Homo sapiens, K562, K-562, MTS, 72 h, mean ± SD, at least three experiments.
Source text: as §1, §2

A further series deals with MCF-7. Briefly: MTS cell viability (cytotoxic activity) assay, MCF-7. The settings on record: for IC50: Homo sapiens, MCF7, MCF-7, MTS, 72 h, mean ± SD, at least three experiments; for cytotoxic effect in words, MCF-7: verbal summary.
Source text: as §1, §2

The subject of the next series is HUVEC. Briefly: MTS cell viability (cytotoxic activity) assay, non-cancerous HUVEC. The settings on record: Homo sapiens, 72 h, mean ± SD, at least three experiments.
Source text: as §1, §2

Series [1] relates to COLO 205, K-562, MCF-7 and HUVEC cell lines. Briefly: MTS cytotoxicity, overall verbal grading over the cell line panel. The note with it: authors' verbal summary over COLO 205, K-562, MCF-7, HUVEC.
Source text: as §1, §2

Where only a bound is given, the exact number is not on record here.

A word on the IC50: it is the concentration that inhibits the measured activity by half. For `C=C1CC[C@@H]2C(C)(C)C(=O)CC[C@@]2(C)[C@@H]1COc1ccc2ccc(=O)oc2c1` [Badrakemone (4), badrakemone], the IC50 with COLO 205, with K-562, in the series with MCF-7 and in the series on HUVEC was above 200 µM in each case. Moreover, the cytotoxicity in words result in series [1] was “little or no cytotoxicity”.

As for `CN1C[C@H](c2cccc(C#N)c2)Oc2ccccc2C1=O` [Compound 6, reference compound], in series [1], the cytotoxicity in words entry was “little or no cytotoxicity”.

With `CC1=CC[C@@H]2C(C)(C)[C@@H](O)CC[C@@]2(C)[C@@H]1COc1ccc2ccc(=O)oc2c1` [Conferol (2), conferol], the “selectivity index COLO 205” value with COLO 205 (HUVEC versus COLO 205) turned out to be 5.45. For the same compound, the IC50 in the series with COLO 205 was 11.2 ± 0.68 µM; with K-562, 35.2 ± 0.89 µM; in the series with MCF-7, 16 ± 0.46 µM; in the series on HUVEC it was 61.03 ± 0.29 µM. Also, the “selectivity index K-562” value in the series on K-562 (HUVEC versus K-562) came to 1.73. The “selectivity index MCF-7” value with MCF-7 (HUVEC versus MCF-7) was 3.82. In series [1], the cytotoxicity in words result is “moderate or strong cytotoxicity”.

As to `CC1(C)[C@H]2CC[C@@](C)(O)[C@H](COc3ccc4ccc(=O)oc4c3)[C@]2(C)CC[C@@H]1O` [Deacetylkellerin (11), deacetylkellerin], the IC50 was above 200 µM with COLO 205, above 200 µM in the series with K-562, 47.62 ± 0.4 µM in the series with MCF-7 and above 200 µM with HUVEC. Also, the cytotoxicity in words result in series [1] was “little or no cytotoxicity”.

Take `COc1cccc2c1C(=O)c1c(O)c3c(c(O)c1C2=O)C[C@@](O)(C(=O)CO)C[C@@H]3O[C@H]1C[C@H](N)[C@H](O)[C@H](C)O1` [Doxorubicin, reference compound]: the 50% inhibitory concentration (IC50) amounted to 0.08 µM with COLO 205, 0.33 ± 0.02 µM in the series with K-562, 2.83 ± 0.25 µM with MCF-7 and 0.2 ± 0.02 µM in the series with HUVEC.

As to `C=C1CC[C@@H]2C(C)(C)[C@H](O)CC[C@@]2(C)[C@H]1COc1ccc2ccc(=O)oc2c1` [Farnesiferol A (6), farnesiferol A], the IC50 was above 200 µM in the series with COLO 205, above 200 µM with K-562, above 200 µM with MCF-7 and 74.4 ± 1.19 µM with HUVEC.

As for `C=C1CCC2C(C)(C)C(OC(C)=O)CCC2(C)C1COc1ccc2ccc(=O)oc2c1` (centres unmarked) [Farnesiferol A acetate (7), farnesiferol A acetate], the half-maximal inhibitory concentration (IC50) in the series with COLO 205 was 66 ± 1.89 µM; with K-562, 52.7 ± 0.9 µM; in the series on MCF-7, 27.4 ± 0.96 µM; in the series on HUVEC, 64.5 ± 1.56 µM. Moreover, in the series on MCF-7, the “cytotoxic effect in words, MCF-7” value is “moderate cytotoxic activity”. Besides, in series [1], the cytotoxicity in words entry is “moderate or strong cytotoxicity”.

For `CC1(C)[C@H](O)CC[C@]2(C)[C@@H]1CC[C@@](C)(O)[C@@H]2COc1ccc2ccc(=O)oc2c1` [Ferukrin (9), ferukrin], the IC50 in the series on COLO 205 is above 200 µM; in the series with K-562 it was above 200 µM; in the series on MCF-7 it was 81.7 ± 1.96 µM; with HUVEC, above 200 µM. For the same compound, the cytotoxicity in words result in series [1] is on record as “little or no cytotoxicity”.

On to `CC(=O)O[C@@H]1CC[C@]2(C)[C@H](CC[C@@](C)(O)[C@@H]2COc2ccc3ccc(=O)oc3c2)C1(C)C` [Ferukrin acetate (10), ferukrin acetate], for which the IC50 is 106 ± 1.35 µM with COLO 205, 88.42 ± 0.85 µM in the series on K-562, above 200 µM with MCF-7 and above 200 µM with HUVEC. The cytotoxicity in words entry in series [1] is listed as “little or no cytotoxicity”.

For `C=C1CC[C@@H]2C(C)(C)[C@@H](O)CC[C@@]2(C)[C@H]1COc1ccc2ccc(=O)oc2c1` [Gummosin (8), gummosin], the IC50 in the series with COLO 205 is above 200 µM; in the series with K-562, 95.5 ± 4.87 µM; in the series with MCF-7 it was above 200 µM; in the series on HUVEC, 174.8 ± 0.28 µM. The cytotoxicity in words result in series [1] is “little or no cytotoxicity”.

For `CC(=O)O[C@H]1CC[C@]2(C)[C@H](CC[C@@](C)(O)[C@@H]2COc2ccc3ccc(=O)oc3c2)C1(C)C` [Kellerin (12), kellerin], the IC50 stood at 51.1 ± 1.57 µM in the series on COLO 205, 78.1 ± 3.13 µM with K-562, 18.24 ± 0.12 µM with MCF-7 and 99.4 ± 1.63 µM with HUVEC. Besides, the “cytotoxic effect in words, MCF-7” value with MCF-7 was “moderate cytotoxic effect”.

Take `CC1(O)CCC2C(C)(C)C(O)CCC2(C)C1COc1ccc2ccc(=O)oc2c1` (centres unmarked) [Samarcandin (14), samarcandin]: the IC50 in the series with COLO 205 is 170 ± 3.62 µM; with K-562 it was 143 ± 1.67 µM; in the series on MCF-7, 83.27 ± 0.39 µM; with HUVEC it was 169 ± 2.68 µM. In series [1], the cytotoxicity in words result is given as “little or no cytotoxicity”.

Consider `CC(=O)O[C@H]1CC[C@]2(C)[C@H](CC[C@](C)(O)[C@H]2COc2ccc3ccc(=O)oc3c2)C1(C)C` [Samarcandin acetate (15), samarcandin acetate], for which the IC50 in the series with COLO 205 was 70.29 ± 0.65 µM; with K-562 it was 78.7 ± 1.65 µM; in the series on MCF-7, above 200 µM; in the series on HUVEC, above 200 µM. In series [1], the cytotoxicity in words result is listed as “little or no cytotoxicity”.

On to `CC1(C)C(=O)CC[C@]2(C)[C@@H]1CC[C@](C)(O)[C@H]2COc1ccc2ccc(=O)oc2c1` [Samarcandone (13), samarcandone], for which the IC50 with COLO 205 was 125 ± 2.13 µM; in the series on K-562, above 200 µM; in the series with MCF-7, above 200 µM; in the series with HUVEC it was 190 ± 5.2 µM. Besides, the cytotoxicity in words entry in series [1] is recorded as “little or no cytotoxicity”.
